Values quoted from earlier work in patent publication US20220387447A1, “FORMULATIONS OF TESTOSTERONE AND METHODS OF TREATMENT THEREWITH” (BOARD OF REGENTS, THE UNIVERSITY OF TEXAS SYSTEM, priority 2016, published 2022).

Legend:
[1] = intranasal administration; baseline mean 2.5 pmol/L
[2] = system: women; settings: single-dose administration, sublingually

CC12CCC(=O)C=C1CCC1C2CCC2(C)C(O)CCC12 (centres unmarked) [testosterone, Testosterone]
maximum testosterone concentration (mean) [1]: 168.2 pmol/L
subjective sexual desire, genital responsiveness, and genital arousal [2]: increase
